Results from patent US7135615B2, “Chromosome doubling method” (The Curators of the University of Missouri, priority 2001, dated 2006).
Marks after values point to notes of the source that are not given here.

Tests used:
[1] = test system: maize Oh43 haploid seedlings; assay: nitrous oxide gas treatment at 3–8 leaf stages, Oh43 haploids (Example 3); conditions: for Ear (open pollinated): No. of fertile sectors /ear / Ear (open pollinated): No. of kernels produced /ear / Ear (open pollinated): Plants with fertile sectors % / No. of tassel branch Average / Plant height (cm) Average / Tassel: No. of fertile anthers extruded/tassel / Tassel: No. of fertile sectors/tassel / Tassel: Plants with fertile sectors % / Ear (open pollinated): Plants with fertile sectors No. / Tassel: Plants with fertile sectors No. / No. of plants Survived: 600 kPa, 2 days
Description: Leaf stages were defined as follows, At the 3 leaf stage, there are three elongated leaves and the tip of the fourth leaf appears at the center of the leaf whorl. This stage is defined as V2 according to Ritchie et al. (1997). At the 8 leaf stage, there are 8 elongated leaves and the tip of the 9th and 10th leaves appear at the center of the leaf whorl (late V5 stage). At the 6 leaf stage, six elongated leaves are observable, and the tip of seventh leaf appears at the leaf whorl (late V4 or early V5 stage). Nine to sixteen haploid plants were treated at each stage using a large air tight iron chamber (FIG. 3). […] Moistened calcium hydroxide (50 g) wrapped in a paper towel was included to absorb carbon dioxide that is produced by the seedlings, as carbon dioxide at high concentration will injure the seedlings during the treatment. The soil of the pots was dried prior to treatment to prevent root injuries. […] The gas was introduced slowly into the chamber over a 10 minutes time frame.
After the treatment, seedlings were transplanted into larger pots, and grown in a greenhouse. A relatively cool temperature (below 25° C.) was maintained to permit the appropriate development of doubled sectors. At flowering, the ears were cross pollinated by an appropriate pollen source to reveal all the fertile sectors on the ears. On the treated plants, plant height (cm), tassel size (cm), number of tassel branches, ear length (cm), the number of fertile sectors on a tassel and an ear, the number of anthers on a tassel, and the number of kernels on an ear were recorded.
Analyses of variance and Duncan's Multiple Range Tests were performed to determine the effects of treatments on the plant height (cm), tassel size (cm), and ear length (cm). Chi square tests were used to determine the effects of treatments upon the proportion of plants that developed fertile tassel and ear sectors. The ratios of untreated plants with fertile sectors were used to estimate the significance of the ratio of treated plants with fertile sectors.
Nonparametric tests were performed to compare the distributions. The primary test was the Kruskal-Wallis test. In the initial tests, the null hypothesis considered was that the distributions would be the same for each treatment and control. If the null hypothesis was rejected (P<0.05), then pair wise comparisons of each treatment to the control using Dunn's method were conducted. The tassel branch number was low incidence count data and was analyzed using the same nonparametric tests mentioned above.

[2] = test system: maize haploid seedlings of various origin; assay: doubled haploid production trial, combined data (Total/Average) of haploids of eight different origins; conditions: for Ear: Plants with kernels after selfing % / Tassel: No. of fertile anthers extruded/tassel / Tassel: No. of fertile sectors/tassel / Tassel: Plants with fertile sectors % / Ear: Plants with kernels after selfing No. / Tassel: Plants with fertile sectors No. / No. of plants Survived / Ear: No. of kernels produced/ear: Total/Average of eight origins, 600 kPa, 2 days; for Ear: No. of kernels produced/ear: selfed
Procedure: Ten to nineteen plants were treated for each plot. Self pollinations were conducted on these treated haploids if there were fertile sectors on the tassel. Pollen grains were collected carefully on a sheet of paper and transferred to the silks repeatedly. Silks and husks were cut back prior to pollination in order to permit maximum seed set. The numbers of fertile tassel and ear sectors, as well as the numbers of anthers and selfed kernels were recorded. Statistical analyses were as described above.

SMILES: [N-]=[N+]=O [nitrous oxide gas, nitrous oxide]
- Ear (open pollinated): No. of fertile sectors /ear ([1]; 3 leaf stage): 0.7 /ear
- Ear (open pollinated): No. of kernels produced /ear ([1]; 3 leaf stage): 0.5 /ear
- Ear (open pollinated): Plants with fertile sectors % ([1]; 3 leaf stage): 33%
- No. of tassel branch Average ([1]; 3 leaf stage): 3.8**
- Plant height (cm) Average ([1]; 3 leaf stage): 106 a cm
- Tassel: No. of fertile anthers extruded/tassel ([1]; 3 leaf stage): 0.0 /tassel
- Tassel: No. of fertile sectors/tassel ([1]; 3 leaf stage): 0.0 /tassel
- Tassel: Plants with fertile sectors % ([1]; 3 leaf stage): 0%
- Ear (open pollinated): Plants with fertile sectors No. ([1]; 3 leaf stage, 12 examined): 4
- Tassel: Plants with fertile sectors No. ([1]; 3 leaf stage, 12 examined): 0
- No. of plants Survived ([1]; 3 leaf stage, 12 treated): 12
- effect for increasing the fertile sectors on either tassels and ears ([1]; 3–4 leaf stage): no effect
- number of anthers /tassel, span over treatments ([1]; 3–8 leaf stage treatments): 0–19.7 /tassel
- number of kernels on the ears, span over treatments ([1]; 3–8 leaf stage treatments): 0.5–18.6
- Ear (open pollinated): No. of fertile sectors /ear ([1]; 4 leaf stage): 0.8 /ear
- Ear (open pollinated): No. of kernels produced /ear ([1]; 4 leaf stage): 0.8 /ear
- Ear (open pollinated): Plants with fertile sectors % ([1]; 4 leaf stage): 46%
- No. of tassel branch Average ([1]; 4 leaf stage): 4.4**
- Plant height (cm) Average ([1]; 4 leaf stage): 121 b cm
- Tassel: No. of fertile anthers extruded/tassel ([1]; 4 leaf stage): 1.5 /tassel
- Tassel: No. of fertile sectors/tassel ([1]; 4 leaf stage): 0.3 /tassel
- Tassel: Plants with fertile sectors % ([1]; 4 leaf stage): 23%
- Ear (open pollinated): Plants with fertile sectors No. ([1]; 4 leaf stage, 13 examined): 6
- Tassel: Plants with fertile sectors No. ([1]; 4 leaf stage, 13 examined): 3
- No. of plants Survived ([1]; 4 leaf stage, 13 treated): 13
- Ear (open pollinated): No. of fertile sectors /ear ([1]; 5 leaf stage): 1.4 /ear
- Ear (open pollinated): No. of kernels produced /ear ([1]; 5 leaf stage): 1.8 /ear
- Ear (open pollinated): Plants with fertile sectors % ([1]; 5 leaf stage): 46%
- No. of tassel branch Average ([1]; 5 leaf stage): 2.9**
- Plant height (cm) Average ([1]; 5 leaf stage): 124 b cm
- Tassel: No. of fertile anthers extruded/tassel ([1]; 5 leaf stage): 19.7 /tassel
- Tassel: No. of fertile sectors/tassel ([1]; 5 leaf stage): 1.2* /tassel
- Tassel: Plants with fertile sectors % ([1]; 5 leaf stage): 54** %
- Ear (open pollinated): Plants with fertile sectors No. ([1]; 5 leaf stage, 13 examined): 6
- Tassel: Plants with fertile sectors No. ([1]; 5 leaf stage, 13 examined): 7
- Ear (open pollinated): No. of fertile sectors /ear ([1]; 6 leaf stage): 1.5 /ear
- Ear (open pollinated): No. of kernels produced /ear ([1]; 6 leaf stage): 18.6 /ear
- Ear (open pollinated): Plants with fertile sectors % ([1]; 6 leaf stage): 67%
- No. of tassel branch Average ([1]; 6 leaf stage): 5.7
- Plant height (cm) Average ([1]; 6 leaf stage): 119 b cm
- Tassel: No. of fertile anthers extruded/tassel ([1]; 6 leaf stage): 5.3 /tassel
- Tassel: No. of fertile sectors/tassel ([1]; 6 leaf stage): 1.8** /tassel
- Tassel: Plants with fertile sectors % ([1]; 6 leaf stage): 100%
- Ear (open pollinated): Plants with fertile sectors No. ([1]; 6 leaf stage, 12 examined): 8
- Tassel: Plants with fertile sectors No. ([1]; 6 leaf stage, 12 examined): 12
- No. of plants Survived ([1]; 6 leaf stage, 16 treated): 12
- Ear (open pollinated): No. of fertile sectors /ear ([1]; 7 leaf stage): 0.8 /ear
- Ear (open pollinated): No. of kernels produced /ear ([1]; 7 leaf stage): 1.1 /ear
- Ear (open pollinated): Plants with fertile sectors % ([1]; 7 leaf stage): 46%
- No. of tassel branch Average ([1]; 7 leaf stage): 5.0*
- Plant height (cm) Average ([1]; 7 leaf stage): 122 b cm
- Tassel: No. of fertile anthers extruded/tassel ([1]; 7 leaf stage): 5.8** /tassel
- Tassel: No. of fertile sectors/tassel ([1]; 7 leaf stage): 2.1** /tassel
- Tassel: Plants with fertile sectors % ([1]; 7 leaf stage): 69** %
- Ear (open pollinated): Plants with fertile sectors No. ([1]; 7 leaf stage, 13 examined): 6
- Tassel: Plants with fertile sectors No. ([1]; 7 leaf stage, 13 examined): 9
- No. of plants Survived ([1]; 7 leaf stage, 16 treated): 13
- Ear (open pollinated): No. of fertile sectors /ear ([1]; 8 leaf stage): 1.0 /ear
- Ear (open pollinated): No. of kernels produced /ear ([1]; 8 leaf stage): 4.1 /ear
- Ear (open pollinated): Plants with fertile sectors % ([1]; 8 leaf stage): 46%
- No. of tassel branch Average ([1]; 8 leaf stage): 5.3*
- Plant height (cm) Average ([1]; 8 leaf stage): 122 b cm
- Tassel: No. of fertile anthers extruded/tassel ([1]; 8 leaf stage): 3.1** /tassel
- Tassel: No. of fertile sectors/tassel ([1]; 8 leaf stage): 1.4** /tassel
- Tassel: Plants with fertile sectors % ([1]; 8 leaf stage): 69** %
- Ear (open pollinated): Plants with fertile sectors No. ([1]; 8 leaf stage, 13 examined): 6
- Tassel: Plants with fertile sectors No. ([1]; 8 leaf stage, 13 examined): 9
- No. of plants Survived ([1]; 8 leaf stage, 16 treated): 13
- Ear: Plants with kernels after selfing % ([2]; 5 leaf stage): 36** %
- Tassel: No. of fertile anthers extruded/tassel ([2]; 5 leaf stage): 32.3** /tassel
- Tassel: No. of fertile sectors/tassel ([2]; 5 leaf stage): 0.9** /tassel
- Tassel: Plants with fertile sectors % ([2]; 5 leaf stage): 61** %
- Ear: Plants with kernels after selfing No. ([2]; 5 leaf stage, 95 survived): 33
- Tassel: Plants with fertile sectors No. ([2]; 5 leaf stage, 95 survived): 58
- No. of plants Survived ([2]; 5 leaf stage, 102 treated): 95
- Ear: No. of kernels produced/ear ([2]; 5 leaf stage): 4.4** /ear
- Ear: Plants with kernels after selfing % ([2]; 6 leaf stage): 44%
- Tassel: No. of fertile anthers extruded/tassel ([2]; 6 leaf stage): 74.3 /tassel
- Tassel: No. of fertile sectors/tassel ([2]; 6 leaf stage): 2.1** /tassel
- Tassel: Plants with fertile sectors % ([2]; 6 leaf stage): 78** %
- Ear: Plants with kernels after selfing No. ([2]; 6 leaf stage, 90 survived): 39
- Tassel: Plants with fertile sectors No. ([2]; 6 leaf stage, 90 survived): 70
- No. of plants Survived ([2]; 6 leaf stage, 97 treated): 90
- Ear: No. of kernels produced/ear ([2]; 6 leaf stage): 8.6** /ear
- Ear: Plants with kernels after selfing % ([2]; 7 leaf stage): 34** %
- Tassel: No. of fertile anthers extruded/tassel ([2]; 7 leaf stage): 63.5** /tassel
- Tassel: No. of fertile sectors/tassel ([2]; 7 leaf stage): 2.8** /tassel
- Tassel: Plants with fertile sectors % ([2]; 7 leaf stage): 74** %
- Ear: Plants with kernels after selfing No. ([2]; 7 leaf stage, 90 survived): 29
- Tassel: Plants with fertile sectors No. ([2]; 7 leaf stage, 90 survived): 67
- No. of plants Survived ([2]; 7 leaf stage, 101 treated): 90
- Ear: No. of kernels produced/ear ([2]; 7 leaf stage): 7.0** /ear
- effect of treatment on fertility ([2]; haploids derived from A619, B73 and W22×W23): no significant effect
- treated haploids that produced double haploid progenies after self pollination ([2]; haploids induced from Oh43, A619×B73, and Oh43×Mol7): about 30%
